Results as given in US20210115104A1, “AMYLIN ANALOGUES” (Zealand Pharma A/S, priority 2015, published 2021).
*1 amine or outer side, *2 acyl side, *3 side chain or, on linkers, in order; H or OH if unused. Where a SMILES comes first, the peptide text is derived from it. Bridges are numbered along the chain shown (N, C = ends). [ ]: non-standard residue; d: D form. The star is where a group is joined. C20 diacid = O=C(O)CCCCCCCCCCCCCCCCCCC(=O)*; γGlu = O=C(O)[C@H](CCC(=O)[*:2])N[*:1]; Hyp = O=C(O)[C@@H]1C[C@@H](O)CN1; NMeI = CC[C@H](C)[C@H](NC)C(=O)O; Aad = N[C@@H](CCCC(=O)O)C(=O)O; Sar = CNCC(=O)O

Key:
[1] = biological target: T1, human calcitonin receptor (hCTR2) (Homo sapiens, UniProt P30988); test: hCTR2 cAMP assay (AlphaScreen) in COS7 cells; assay type: cell-based; settings: cAMP induction, COS7 cells expressing hCTR2; Table 1; read-out: hCTR2 EC50
T1 construct: expressed in transfected cells
T1 sequence (P30988 25-474): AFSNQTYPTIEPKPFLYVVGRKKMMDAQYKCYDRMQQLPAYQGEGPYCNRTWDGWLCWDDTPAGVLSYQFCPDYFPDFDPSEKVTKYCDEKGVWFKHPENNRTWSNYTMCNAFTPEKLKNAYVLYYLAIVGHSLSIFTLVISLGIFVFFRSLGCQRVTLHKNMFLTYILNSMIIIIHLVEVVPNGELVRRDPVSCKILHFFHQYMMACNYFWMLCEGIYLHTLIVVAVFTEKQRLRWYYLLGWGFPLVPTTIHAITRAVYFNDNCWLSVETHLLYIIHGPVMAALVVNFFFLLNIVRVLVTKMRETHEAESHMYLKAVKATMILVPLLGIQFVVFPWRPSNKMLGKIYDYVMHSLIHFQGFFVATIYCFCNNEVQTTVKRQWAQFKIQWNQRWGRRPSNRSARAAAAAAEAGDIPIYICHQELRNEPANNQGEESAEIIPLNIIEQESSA
Summary of the method: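 Stable hCTR2 clone in RAMP-naïve COS7 cells stimulated 15 min at 37 °C with increasing peptide concentrations in Tyrode buffer pH 7.4 containing IBMX and 0.1% casein. cAMP in lysates measured by AlphaScreen; EC50 from 4-parameter logistic fit.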

[2] = biological target: T2, human amylin receptor 3 (hAMYR3), hCTR2 co-expressed with hRAMP3 (Homo sapiens, UniProt O60896+P30988); test: hAMYR3 cAMP assay (AlphaScreen) in COS7 cells; assay type: cell-based; settings: cAMP induction, COS7 cells expressing hAMYR3; Table 1; read-out: hAMYR3 EC50
T2 construct: expressed in transfected cells
T2 sequence (P30988 25-474): T1 sequence (P30988 25-474)
T2 sequence (O60896 24-148 partner): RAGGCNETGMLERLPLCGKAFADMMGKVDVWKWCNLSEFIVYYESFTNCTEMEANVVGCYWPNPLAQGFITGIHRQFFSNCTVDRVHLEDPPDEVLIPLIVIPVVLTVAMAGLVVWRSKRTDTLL
Summary of the method: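 Stable COS7 clone co-expressing hCTR2 and hRAMP3 was exposed to increasing peptide concentrations in Tyrode buffer (pH 7.4) with 100 µM IBMX and 0.1% casein for 15 min at 37 °C. Lysate cAMP was measured by AlphaScreen; EC50 came from 4-parameter logistic fitting.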

[3] = Assessment of physical stability (Thioflavin T fibrillation); assay type: physicochemical; set-up: key: FND = fibrillation not detected; FD = fibrillation detected; settings: 1 mg/ml, 40° C., ThT; for Fibrillation pH 4.0 (Ac): 50 mM acetate buffer pH 4.0, 96 hours; for Fibrillation pH 7.0 (His): 50 mM histidine buffer pH 7.0, 96 hours; for Fibrillation pH 7.0 (Phos.): 50 mM phosphate buffer pH 7.0, 96 hours
Summary of the method: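 1 mg/ml peptide with 40 μM ThT in 50 mM phosphate pH 7.0, 50 mM histidine pH 7.0 or 50 mM acetate pH 4.0, in triplicate. Fluorescence read every 10 min after 300 s agitation over 96 h at 40 °C. Lag-time (h) is the intersection of linear fits to stable and growth phases.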

[4] = Assessment of chemical stability (RP-HPLC normalized purity); assay type: physicochemical; settings: for Normalized purity after 7 days, 40° C., pH 4: pH 4, 0.2 mg/ml; for Normalized purity after 7 days, 40° C., pH 4 / Normalized purity after 7 days, 40° C., pH 6 / Normalized purity after 7 days, 40° C., pH 7.5 / Normalized purity after 7 days, 40° C., pH 9: Table 1; for Normalized purity after 7 days, 40° C., pH 6: pH 6, 0.2 mg/ml; for Normalized purity after 7 days, 40° C., pH 7.5: pH 7.5, 0.2 mg/ml; for Normalized purity after 7 days, 40° C., pH 9: pH 9, 0.2 mg/ml
Summary of the method: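 Peptides at 0.2 mg/ml in water adjusted to pH 4, 6, 7.5 or 9, incubated at 40° C for 7 days. Main-peak area-% by RP-HPLC (C8 ammonium formate or C18 TFA gradient, UV 220 nm), normalized to T=0 as 100.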

## CC[C@H](C)[C@@H](C(=O)N[C@@H](CC(C)C)C(=O)N[C@@H](CO)C(=O)N[C@@H](CO)C(=O)N[C@H](C(=O)N[C@@H](CC(=O)O)C(=O)N[C@H](C(=O)NCC(=O)N[C@@H](CO)C(=O)N[C@@H](CC(N)=O)C(=O)N[C@H](C(=O)N1C[C@H](O)C[C@H]1C(N)=O)[C@@H](C)O)C(C)C)[C@@H](C)O)N(C)C(=O)[C@H](C)NC(=O)CN(C)C(=O)[C@H](Cc1ccccc1)NC(=O)[C@H](CO)NC(=O)[C@H](CO)NC(=O)[C@H](CCCNC(=N)N)NC(=O)[C@H](CCC(N)=O)NC(=O)[C@H](CC(C)C)NC(=O)[C@H](Cc1ccccc1)NC(=O)[C@H](Cc1c[nH]cn1)NC(=O)[C@H](C)NC(=O)[C@H](CC(C)C)NC(=O)[C@H](CCCNC(=N)N)NC(=O)[C@H](CC(=O)O)NC(=O)[C@@H](NC(=O)[C@H](C)NC(=O)[C@@H]1CSSC[C@H](NC(=O)[C@H](CCCNC(=N)N)NC(=O)CC[C@H](NC(=O)CCCCCCCCCCCCCCCCCCC(=O)O)C(=O)O)C(=O)N2CCC[C@H]2C(=O)N[C@@H]([C@@H](C)O)C(=O)N[C@@H](C)C(=O)N[C@@H]([C@@H](C)O)C(=O)N1)[C@@H](C)O [Compound 59, [19CD]-isoGlu-R-C( )-PTAT-C( )-ATDRLAHFLQRSSF-Gly(Me)-A-Ile(Me)-LSSTDVGSNT-Hyp-NH2] ({C20 diacid-γGlu}-RCPTATCATDRLAHFLQRSSF[Sar]A[NMeI]LSSTDVGSNT[Hyp]-NH2; disulfide 2-7)
[1]
  EC50: 0.03 nM
[2]
  EC50: 0.11 nM
[3]
  Fibrillation pH 4.0 (Ac): FND
  Fibrillation pH 7.0 (His): FD
  Fibrillation pH 7.0 (Phos.): FD
[4]
  Normalized purity after 7 days, 40° C., pH 4: A (A = >90%)
  Normalized purity after 7 days, 40° C., pH 6: B (B = 70-90%)
  Normalized purity after 7 days, 40° C., pH 7.5: C (C = <70%)
  Normalized purity after 7 days, 40° C., pH 9: B (B = 70-90%)

## CC[C@H](C)[C@@H](C(=O)N[C@@H](CC(C)C)C(=O)N[C@@H](CO)C(=O)N[C@@H](CO)C(=O)N[C@H](C(=O)N[C@@H](CCC(=O)O)C(=O)N[C@H](C(=O)NCC(=O)N[C@@H](CO)C(=O)N[C@@H](CC(=O)O)C(=O)N[C@H](C(=O)N1C[C@H](O)C[C@H]1C(N)=O)[C@@H](C)O)C(C)C)[C@@H](C)O)N(C)C(=O)[C@H](C)NC(=O)CN(C)C(=O)[C@H](Cc1ccccc1)NC(=O)[C@H](CO)NC(=O)[C@H](CO)NC(=O)[C@H](CCCNC(=N)N)NC(=O)[C@H](CCC(N)=O)NC(=O)[C@H](CC(C)C)NC(=O)[C@H](Cc1ccccc1)NC(=O)[C@H](Cc1c[nH]cn1)NC(=O)[C@H](C)NC(=O)[C@H](CC(C)C)NC(=O)[C@H](CCCNC(=N)N)NC(=O)[C@H](CCC(=O)O)NC(=O)[C@@H](NC(=O)[C@H](C)NC(=O)[C@@H]1CSSC[C@H](NC(=O)[C@H](CCCNC(=N)N)NC(=O)CC[C@H](NC(=O)CCCCCCCCCCCCCCCCCCC(=O)O)C(=O)O)C(=O)N[C@@H](CC(N)=O)C(=O)N[C@@H]([C@@H](C)O)C(=O)N[C@@H](C)C(=O)N[C@@H]([C@@H](C)O)C(=O)N1)[C@@H](C)O [Compound 60, [19CD]-isoGlu-R-C( )-NTAT-C( )-ATERLAHFLQRSSF-Gly(Me)-A-Ile(Me)-LSSTEVGSDT-Hyp-NH2] ({C20 diacid-γGlu}-RCNTATCATERLAHFLQRSSF[Sar]A[NMeI]LSSTEVGSDT[Hyp]-NH2; disulfide 2-7)
[1]
  EC50: 0.08 nM
[2]
  EC50: 0.09 nM
[3]
  Fibrillation pH 4.0 (Ac): FND
  Fibrillation pH 7.0 (His): FND
  Fibrillation pH 7.0 (Phos.): FND
[4]
  Normalized purity after 7 days, 40° C., pH 4: A (A = >90%)
  Normalized purity after 7 days, 40° C., pH 6: A (A = >90%)
  Normalized purity after 7 days, 40° C., pH 7.5: A (A = >90%)
  Normalized purity after 7 days, 40° C., pH 9: B (B = 70-90%)

## CC[C@H](C)[C@@H](C(=O)N[C@@H](CC(C)C)C(=O)N[C@@H](CO)C(=O)N[C@@H](CO)C(=O)N[C@H](C(=O)N[C@@H](CCC(=O)O)C(=O)N[C@H](C(=O)NCC(=O)N[C@@H](CO)C(=O)NCC(=O)N[C@H](C(=O)N1C[C@H](O)C[C@H]1C(N)=O)[C@@H](C)O)C(C)C)[C@@H](C)O)N(C)C(=O)[C@H](C)NC(=O)CN(C)C(=O)[C@H](Cc1ccccc1)NC(=O)[C@H](CCCNC(=N)N)NC(=O)[C@H](CCC(N)=O)NC(=O)[C@H](CC(C)C)NC(=O)[C@H](Cc1ccccc1)NC(=O)[C@H](Cc1c[nH]cn1)NC(=O)[C@H](C)NC(=O)[C@H](CC(C)C)NC(=O)[C@H](CCCNC(=N)N)NC(=O)[C@H](CCC(N)=O)NC(=O)[C@@H](NC(=O)[C@H](C)NC(=O)[C@@H]1CSSC[C@H](NC(=O)[C@H](CCCNC(=N)N)NC(=O)CC[C@H](NC(=O)CCCCCCCCCCCCCCCCCCC(=O)O)C(=O)O)C(=O)N[C@@H](CC(N)=O)C(=O)N[C@@H]([C@@H](C)O)C(=O)N[C@@H](C)C(=O)N[C@@H]([C@@H](C)O)C(=O)N1)[C@@H](C)O [Compound 79, [19CD]-isoGlu-R-C( )-NTAT-C( )-ATQRLAHFLQRF-Gly(Me)-A-Ile(Me)-LSSTEVGSGT-Hyp-NH2] ({C20 diacid-γGlu}-RCNTATCATQRLAHFLQRF[Sar]A[NMeI]LSSTEVGSGT[Hyp]-NH2; disulfide 2-7)
[1]
  EC50: 0.12 nM
[2]
  EC50: 0.23 nM
[3]
  Fibrillation pH 4.0 (Ac): FND
  Fibrillation pH 7.0 (His): FD
  Fibrillation pH 7.0 (Phos.): FD
[4]
  Normalized purity after 7 days, 40° C., pH 4: A (A = >90%)
  Normalized purity after 7 days, 40° C., pH 6: A (A = >90%)
  Normalized purity after 7 days, 40° C., pH 7.5: B (B = 70-90%)
  Normalized purity after 7 days, 40° C., pH 9: B (B = 70-90%)

## CC[C@H](C)[C@@H](C(=O)N[C@@H](CC(C)C)C(=O)N[C@@H](CO)C(=O)N[C@@H](CO)C(=O)N[C@H](C(=O)N[C@@H](CCC(=O)O)C(=O)N[C@H](C(=O)NCC(=O)N[C@@H](CO)C(=O)N[C@@H](CC(N)=O)C(=O)N[C@H](C(=O)N1C[C@H](O)C[C@H]1C(N)=O)[C@@H](C)O)C(C)C)[C@@H](C)O)N(C)C(=O)[C@H](C)NC(=O)CN(C)C(=O)[C@H](Cc1ccccc1)NC(=O)[C@H](CO)NC(=O)[C@H](CO)NC(=O)[C@H](CCCNC(=N)N)NC(=O)[C@H](CCC(N)=O)NC(=O)[C@H](CC(C)C)NC(=O)[C@H](Cc1ccccc1)NC(=O)[C@H](CCCC(=O)O)NC(=O)[C@H](C)NC(=O)[C@H](CC(C)C)NC(=O)[C@H](CCCNC(=N)N)NC(=O)[C@H](CC(=O)O)NC(=O)[C@@H](NC(=O)[C@H](C)NC(=O)[C@@H]1CSSC[C@H](NC(=O)[C@H](CCCNC(=N)N)NC(=O)CC[C@H](NC(=O)CCCCCCCCCCCCCCCCCCC(=O)O)C(=O)O)C(=O)N[C@@H](CCC(N)=O)C(=O)N[C@@H]([C@@H](C)O)C(=O)N[C@@H](C)C(=O)N[C@@H]([C@@H](C)O)C(=O)N1)[C@@H](C)O [Compound 89, [19CD]-isoGlu-R-C( )-QTAT-C( )-ATDRLA-Aad-FLQRSSF-Gly(Me)-A-Ile(Me)-LSSTEVGSNT-Hyp-NH2] ({C20 diacid-γGlu}-RCQTATCATDRLA[Aad]FLQRSSF[Sar]A[NMeI]LSSTEVGSNT[Hyp]-NH2; disulfide 2-7)
[1]
  EC50: 0.16 nM
[2]
  EC50: 0.2 nM
[3]
  Fibrillation pH 4.0 (Ac): FND
  Fibrillation pH 7.0 (His): FND
  Fibrillation pH 7.0 (Phos.): FND
[4]
  Normalized purity after 7 days, 40° C., pH 4: A (A = >90%)
  Normalized purity after 7 days, 40° C., pH 6: A (A = >90%)
  Normalized purity after 7 days, 40° C., pH 7.5: A (A = >90%)
  Normalized purity after 7 days, 40° C., pH 9: B (B = 70-90%)
[4]; pH 4, repeat of Example 6 for pairs with/without Asn-Asn at 21-22
  Normalized purity pH 4 (Table 5): A (A = >90%)
[4]; pH 6, repeat of Example 6 for pairs with/without Asn-Asn at 21-22
  Normalized purity pH 6 (Table 5): A (A = >90%)
[4]; pH 7.5, repeat of Example 6 for pairs with/without Asn-Asn at 21-22
  Normalized purity pH 7.5 (Table 5): A (A = >90%)
[4]; pH 9, repeat of Example 6 for pairs with/without Asn-Asn at 21-22
  Normalized purity pH 9 (Table 5): A (A = >90%)
